# Test results as given in patent publication US11344578B2, “Immune cells expressing engineered antigen receptors” (Board of Regents, The University of Texas System, priority 2017, dated 2022).
# Entries after “also recorded” stand apart in the source; their conditions may differ.
# Key:
# iC9/CS1/IL15+NK cells = experiment: Inducible caspase-9 suicide gene test, annexin-V-7AAD staining; format: cell-based; conditions: 10 nM CID AP20187 added to cultures
# Protocol: Because of concerns over autonomous, uncontrolled NK-cell growth due to autocrine production of IL-15, a suicide gene based on the inducible caspase-9 (IC9) gene was incorporated into the construct. To test the inducible caspase-9 suicide gene that was incorporated into the retroviral vector, 10 nM of CID AP20187 was added to cultures of iC9/CS1/IL15+NK cells. The AP20187 induced apoptosis/necrosis of transgenic cells within 4 hours as assessed by annexin-V-7AAD staining.
# Raji leukemic B cells = experiment: Luciferase-expressing Raji NSG mouse model, in vivo bioluminescence imaging and survival; conditions: effect of IL-15 in the construct
# From the text: To determine the anti-leukemic effect of the CAR-transduced NK cells, they were infused into a “humanized” mouse model of lymphoblastic leukemia, the luciferase-expressing Raji NSG mouse model. To monitor the trafficking of CAR-CD191+CB-NK cells to tumor sites in vivo, the cells were labeled with the FFLuc vector, enabling monitoring by bioluminescence imaging. Engrafted mice received […] Raji leukemic B cells (2×10^6) injected intravenously and labeled with the RLuc vector to monitor tumor growth. Six to 10 days after tumor engraftment, mice were infused intravenously with 2×10^7 expanded CB-NK cells that were unmodified or CD19-CD28-zeta-2A-IL15 CB-NK cells labeled with FFLuc. All imaging was performed once a week for 3 weeks. Four groups of animals (n=10 per group) were studied, and the spleens, blood and lymph nodes of the mice were collected after they were euthanized.
# glucocorticoid receptor = experiment: PCR based screening of glucocorticoid receptor knockout in hematopoietic cells; format: cell-based; conditions: T cells and NK cells; CRISPR-CAS9; FIG. 3
# From the text: To produce steroid-resistant immune cells, the CRISPR-CAS9 system was used to knockout glucocorticoid receptor in hematopoietic cells using gRNA SEQ ID NOs:1-2.
# TGFβ-RII = experiment: CRISPR/CAS9 knockout of TGFβ-RII in CAR NK cells; format: cell-based; conditions: Cas9 plus gRNA targeting Exon 3; FIG. 6A
# Protocol: Next, CRISPR-CAS9 was used to knockout TGFβ in CAR NK cells to render CAR NK cells resistant to the immunosuppressive effect of exogenous TGFβ. […] Wild type and TGF-β-RII knockout NK cells were treated with 10 ng/ml of recombinant TGF-β for 48 hrs and their response to K562 targets was assessed. […] TGFβ-RII knockout by CRISPR/CAS9 technology was also found to abrogate downstream Smad-2/3 phosphorylation in response to 10n g/ml of recombinant TGF-β compared to NK cells treated with CAS9 alone (FIG. 6C). Thus, CRISPR-CAS9-mediated knockout of TGFβ-RII renders NK cells resistant to TGFβ.
compound,measurement,setting,value
CC[C@H](C(=O)N1CCCC[C@H]1C(=O)O[C@H](CCc1ccc(OC)c(OC)c1)c1cccc(OCC(=O)NCC(CNC(=O)COc2cccc([C@@H](CCc3ccc(OC)c(OC)c3)OC(=O)[C@@H]3CCCCN3C(=O)[C@@H](CC)c3cc(OC)c(OC)c(OC)c3)c2)CN(C)C)c1)c1cc(OC)c(OC)c(OC)c1 [AP20187],time to apoptosis/necrosis of transgenic cells,iC9/CS1/IL15+NK cells,≤ 4 h
IL-15: interleukin-15 co-expressed from the CAR construct in NK cells,NK-CAR mediated killing of tumor,Raji leukemic B cells; FIG. 2A,enhances; also recorded: increase
same,survival,Raji leukemic B cells; FIG. 2B,prolong survival
"gRNA SEQ ID NOs:1-2: guide RNAs Ex3 NR3C1 sG1 and sG2 used with CAS9 to knock out glucocorticoid receptor (guide 1 TGCTGTTGAGGAGCTGGA; guide 2 AGCACACCAGGCAGAGTT; used with Cas9, further chemistry not given here)",glucocorticoid receptor knockout by PCR based screening,glucocorticoid receptor,efficient knockdown
"gRNA SEQ ID NOs:3-4: guide RNAs EX3 TGFBR2 sG1 and sG2 used with Cas9 to knock out TGFβ-RII (guide 1 CGGCTGAGGAGCGGAAGA; guide 2 TGGAGGTGAGCAATCCCC; used with Cas9, further chemistry not given here)",knockout of TGFβ-RII,TGFβ-RII,Successful knockout
